Data: the supplement of paper PMC13380429

Columns and labels:
[1] = test system: A549-ACE2 infected with SARS-CoV-2; test: cell count relative to DMSO; higher = less toxic; conditions: 24 h
[2] = test system: Caco-2; test: cell viability relative to DMSO; higher = less toxic; conditions: 72 h
[3] = test system: Calu-3; test: as above; conditions: 72 h
[4] = test system: HepG2; test: as above; conditions: 72 h
[5] = test system: U2OS; test: as above; conditions: 72 h
[6] = test system: Vero E6; test: as above; conditions: 72 h
[7] = test system: A549-ACE2 infected with SARS-CoV-2; test: SARS-CoV-2 infection rate relative to DMSO; higher = more infection; conditions: 24 h
[8] = test system: A549-ACE2 infected with SARS-CoV-2; test: morphology score (similarity to uninfected cells); higher = more like uninfected cells; conditions: 24 h
[9] = test system: Caco-2; test: relative viability EC50 (midpoint between 100% and the lowest measured viability); higher = less toxic; conditions: 72 h
[10] = test system: Calu-3; test: as above; conditions: 72 h
[11] = test system: HepG2; test: as above; conditions: 72 h
[12] = test system: U2OS; test: as above; conditions: 72 h
[13] = test system: Vero E6; test: as above; conditions: 72 h
[14] = test system: Caco-2; test: drug sensitivity score (DSS) for viability; higher = more toxic; extreme values may be limits of the assay; conditions: 72 h
[15] = test system: Calu-3; test: as above; conditions: 72 h
[16] = test system: HepG2; test: as above; conditions: 72 h
[17] = test system: U2OS; test: as above; conditions: 72 h
[18] = test system: Vero E6; test: as above; conditions: 72 h
[19] = test system: A549-ACE2; test: drug-induced phospholipidosis relative to tamoxifen; higher = more phospholipidosis
[20] = test system: A549-ACE2; test: phospholipidosis EC50; higher = less potent phospholipidosis inducer

COC(=O)[C@@]12OC[C@]34[C@H]([C@@H](O)[C@@H]1O)[C@@]1(C)CC(=O)C(O)=C(C)[C@@H]1C[C@H]3OC(=O)[C@H](OC(=O)/C=C(\C)C(C)C)[C@@H]24 [bruceantin]
Conditions	SARS-CoV-2 infection rate, [7] [%]	cell count, [1] [%]	cell viability, [2] [%]	cell viability, [3] [%]	cell viability, [4] [%]	cell viability, [5] [%]	cell viability, [6] [%]	morphology score, [8]
1 nM	–	–	102	96.7	92.8	103	101	–
10 nM	–	–	78.4	102	76.2	58.3	104	–
0.1 µM	12	62	–	–	–	–	–	0.3
100 nM	–	–	37.7	41.4	13.8	9	59.1	–
0.3 µM	16	62	–	–	–	–	–	0.26
1 µM	20	54	–	–	–	–	–	0.24
1000 nM	–	–	25.5	26.5	4.6	1.8	11.4	–
3 µM	12	38	–	–	–	–	–	0.33
10000 nM	–	–	22.4	21	0.9	0.1	2.5	–

Conditions	drug sensitivity score	relative viability EC50 [µM]
[9]	–	0.0261
[10]	–	0.0659
[11]	–	0.0238
[12]	–	0.0133
[13]	–	0.133
[14]	23.9	–
[15]	21.3	–
[16]	31	–
[17]	34.5	–
[18]	21.5	–

CC(=O)O[C@@H]1C[C@H]2C(C)(C)C(=O)C=C[C@]2(C)[C@H]2CC[C@@]3(C)[C@H](c4ccoc4)OC(=O)[C@H]4O[C@]43[C@@]21C [gedunin]
Conditions	SARS-CoV-2 infection rate, [7] [%]	cell count, [1] [%]	cell viability, [2] [%]	cell viability, [3] [%]	cell viability, [4] [%]	cell viability, [5] [%]	cell viability, [6] [%]	morphology score, [8]
1 nM	–	–	97.5	102	105	99.5	101	–
10 nM	–	–	94.6	103	93.8	100	102	–
100 nM	–	–	102	115	103	95.7	102	–
0.3 µM	107	101	–	–	–	–	–	0.03
1000 nM	–	–	103	97.2	94.9	100	94.3	–
3 µM	95	96	–	–	–	–	–	0.18
10 µM	98	108	–	–	–	–	–	0.06
10000 nM	–	–	86.8	102	80.6	95.4	86.6	–
30 µM	85	103	–	–	–	–	–	0.52

drug-induced phospholipidosis [%], [19]
Conditions	0.3 µM	0.833333 µM	3.33333 µM	6.66667 µM	10 µM	30 µM
24 h	2.13	1.52	8.1	16.6	23.3	40.1
48 h	7.32	5.06	10.1	18	24.2	37.8
72 h	7.41	2.35	7.47	17	21.7	40.6

Conditions	drug sensitivity score	relative viability EC50 [µM]
[9]	–	> 10
[10]	–	> 10
[11]	–	> 10
[12]	–	> 10
[13]	–	> 10
[14]	0.1	–
[15]	0	–
[16]	1.2	–
[17]	0	–
[18]	0.5	–

COCC(=O)O[C@]1(CCN(C)CCCc2nc3ccccc3[nH]2)CCc2cc(F)ccc2[C@@H]1C(C)C [mibefradil]
Conditions	SARS-CoV-2 infection rate [%]	cell count [%]	cell viability [%]	morphology score	phospholipidosis EC50 [µM]
[1], 0.3 µM	–	100	–	–	–
[1], 3 µM	–	125	–	–	–
[1], 10 µM	–	119	–	–	–
[1], 30 µM	–	12	–	–	–
[2], 1 nM	–	–	101	–	–
[2], 10 nM	–	–	90.3	–	–
[2], 100 nM	–	–	101	–	–
[2], 1000 nM	–	–	87.4	–	–
[2], 10000 nM	–	–	45.8	–	–
[3], 1 nM	–	–	99.8	–	–
[3], 10 nM	–	–	105	–	–
[3], 100 nM	–	–	109	–	–
[3], 1000 nM	–	–	101	–	–
[3], 10000 nM	–	–	7.2	–	–
[4], 1 nM	–	–	99	–	–
[4], 10 nM	–	–	97.7	–	–
[4], 100 nM	–	–	88.2	–	–
[4], 1000 nM	–	–	98.3	–	–
[4], 10000 nM	–	–	50.3	–	–
[5], 1 nM	–	–	103	–	–
[5], 10 nM	–	–	97.9	–	–
[5], 100 nM	–	–	98.7	–	–
[5], 1000 nM	–	–	90.9	–	–
[5], 10000 nM	–	–	65.6	–	–
[6], 1 nM	–	–	94.7	–	–
[6], 10 nM	–	–	98.8	–	–
[6], 100 nM	–	–	92.9	–	–
[6], 1000 nM	–	–	91.4	–	–
[6], 10000 nM	–	–	89	–	–
[7], 0.3 µM	102	–	–	–	–
[7], 3 µM	32	–	–	–	–
[7], 10 µM	9	–	–	–	–
[7], 30 µM	84	–	–	–	–
[8], 0.3 µM	–	–	–	-0.1	–
[8], 3 µM	–	–	–	0.85	–
[8], 10 µM	–	–	–	0.71	–
[8], 30 µM	–	–	–	-0.08	–
[20], 24 h	–	–	–	–	2.94
[20], 48 h	–	–	–	–	4.35
[20], 72 h	–	–	–	–	7.83

drug-induced phospholipidosis [%], [19]
Conditions	0.3 µM	0.833333 µM	3.33333 µM	6.66667 µM	10 µM	30 µM
24 h	-2.56	5.28	65.2	87.9	115	45.3
48 h	0.45	7.22	63.5	96.7	118	–
72 h	4.04	7.42	45.4	91.8	122	–

Conditions	drug sensitivity score	relative viability EC50 [µM]
[9]	–	1.61
[10]	–	3.24
[13]	–	> 10
[14]	4.9	–
[15]	5.1	–
[16]	2.8	–
[17]	3	–
[18]	0	–

COC[C@H](NC(=O)c1cnc(C)s1)C(=O)N[C@@H](COC)C(=O)N[C@@H](Cc1ccccc1)C(=O)[C@@]1(C)CO1 [oprozomib]
Conditions	SARS-CoV-2 infection rate, [7] [%]	cell count, [1] [%]	cell viability, [2] [%]	cell viability, [3] [%]	cell viability, [4] [%]	cell viability, [5] [%]	cell viability, [6] [%]	morphology score, [8]
1 nM	–	–	103	92.4	114	103	106	–
10 nM	–	–	94.8	102	99.3	93.8	103	–
0.1 µM	76	87	–	–	–	–	–	0.41
100 nM	–	–	18.9	25.4	27.5	53.9	72.4	–
0.3 µM	95	83	–	–	–	–	–	0.31
1 µM	64	74	–	–	–	–	–	0.24
1000 nM	–	–	8.5	4.2	4.6	0.2	16.3	–
3 µM	33	59	–	–	–	–	–	0.24
10000 nM	–	–	5.5	4.5	-0.1	-0.3	4.2	–

[19], 24 h
Conditions	drug-induced phospholipidosis [%]
0.3 µM	-19.8
0.833333 µM	-14.9
3.33333 µM	-36.6

Conditions	drug sensitivity score	relative viability EC50 [µM]
[9]	–	0.0409
[10]	–	0.0607
[11]	–	0.0661
[12]	–	0.109
[13]	–	0.209
[14]	27.4	–
[15]	25.9	–
[16]	26.4	–
[17]	23.3	–
[18]	18.7	–

C[C@@H]1CN(CCCn2c3ccccc3c3ccccc32)C[C@H](C)N1 [rimcazole]
Conditions	SARS-CoV-2 infection rate [%]	cell count [%]	cell viability [%]	morphology score	phospholipidosis EC50 [µM]
[1], 0.3 µM	–	108	–	–	–
[1], 3 µM	–	122	–	–	–
[1], 10 µM	–	117	–	–	–
[1], 30 µM	–	101	–	–	–
[2], 1 nM	–	–	96	–	–
[2], 10 nM	–	–	99.5	–	–
[2], 100 nM	–	–	93.4	–	–
[2], 1000 nM	–	–	90.8	–	–
[2], 10000 nM	–	–	87	–	–
[3], 1 nM	–	–	103	–	–
[3], 10 nM	–	–	88.6	–	–
[3], 100 nM	–	–	100	–	–
[3], 1000 nM	–	–	90.2	–	–
[3], 10000 nM	–	–	60.1	–	–
[4], 1 nM	–	–	106	–	–
[4], 10 nM	–	–	105	–	–
[4], 100 nM	–	–	98	–	–
[4], 1000 nM	–	–	106	–	–
[4], 10000 nM	–	–	76.4	–	–
[5], 1 nM	–	–	100	–	–
[5], 10 nM	–	–	98.1	–	–
[5], 100 nM	–	–	105	–	–
[5], 1000 nM	–	–	96.8	–	–
[5], 10000 nM	–	–	96.4	–	–
[6], 1 nM	–	–	97.9	–	–
[6], 10 nM	–	–	97.9	–	–
[6], 100 nM	–	–	94.4	–	–
[6], 1000 nM	–	–	98.2	–	–
[6], 10000 nM	–	–	81.7	–	–
[7], 0.3 µM	104	–	–	–	–
[7], 3 µM	43	–	–	–	–
[7], 10 µM	13	–	–	–	–
[7], 30 µM	41	–	–	–	–
[8], 0.3 µM	–	–	–	0.08	–
[8], 3 µM	–	–	–	0.76	–
[8], 10 µM	–	–	–	0.81	–
[8], 30 µM	–	–	–	0.11	–
[20], 24 h	–	–	–	–	2.9
[20], 48 h	–	–	–	–	5.12
[20], 72 h	–	–	–	–	5.72

drug-induced phospholipidosis [%], [19]
Conditions	0.3 µM	0.833333 µM	3.33333 µM	6.66667 µM	10 µM	30 µM
24 h	4.49	10.3	68.5	99.3	102	118
48 h	7.19	8.94	52.5	90.8	105	135
72 h	8.99	8.76	45.8	87	106	137

Conditions	drug sensitivity score	relative viability EC50 [µM]
[9]	–	> 10
[11]	–	> 10
[12]	–	> 10
[13]	–	> 10
[14]	0.2	–
[15]	3.5	–
[16]	0.6	–
[17]	0	–
[18]	0.7	–
